What was measured:
KRas^WT = target: T1, KRas^WT (Homo sapiens, UniProt P01116); assay: KRas binding assay (TR-FRET tracer displacement), KRas WT; conditions: for inhibition at 0.01 µM: single point, 10 nM compound, TR-FRET
T1 construct: Biotinylated KRas (corresponding to amino acids 1-169, produced at Accelegan Inc.); biotin (biotinylated); purchased Accelegan Inc

KRas^G12S = target: T2, KRas^G12S (Homo sapiens, UniProt P01116, G12S); assay: KRas binding assay (TR-FRET tracer displacement), KRas G12S; conditions: for inhibition at 0.01 µM: single point, 10 nM compound, TR-FRET
T2 construct: Biotinylated KRas (corresponding to amino acids 1-169, produced at Accelegan Inc.); biotin (biotinylated); purchased Accelegan Inc

[1] = system: KRas-mediated phosphorylation of ERK in PSN1 cells; assay: Inhibition of KRas-mediated phosphorylation of ERK (Cisbio HTRF pERK), PSN1 cells; assay type: cell-based; conditions: Homo sapiens
Method in brief: (§1)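 Seeding density was 6,000 cells/well; medium RPMI, 10% FBS. Read-out by homogeneous time-resolved fluorescence (pERK) after 4 hours covered at room temperature.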

[2] = system: KRas-mediated phosphorylation of ERK in MKN1 cells; assay: Inhibition of KRas-mediated phosphorylation of ERK (Cisbio HTRF pERK), MKN1 cells; assay type: cell-based; conditions: Homo sapiens, MKN-1
Method in brief: as §1

KRas^G12C = target: T3, KRas^G12C (Homo sapiens, UniProt P01116, G12C); assay: KRas binding assay (TR-FRET tracer displacement), KRas G12C; conditions: for inhibition at 0.01 µM: single point, 10 nM compound, TR-FRET
T3 construct: Biotinylated KRas (corresponding to amino acids 1-169, produced at Accelegan Inc.); biotin (biotinylated); purchased Accelegan Inc

KRas^Q61H = target: T4, KRas^Q61H (Homo sapiens, UniProt P01116, Q61H); assay: KRas binding assay (TR-FRET tracer displacement), KRas Q61H; conditions: for inhibition at 0.01 µM: single point, 10 nM compound, TR-FRET
T4 construct: Biotinylated KRas (corresponding to amino acids 1-169, produced at Accelegan Inc.); biotin (biotinylated); purchased Accelegan Inc

KRas^G12R = target: T5, KRas^G12R (Homo sapiens, UniProt P01116, G12R); assay: KRas binding assay (TR-FRET tracer displacement), KRas G12R
T5 construct: Biotinylated KRas (corresponding to amino acids 1-169, produced at Accelegan Inc.); biotin (biotinylated); purchased Accelegan Inc

[3] = system: KRas-mediated phosphorylation of ERK in H358 cells; assay: Inhibition of KRas-mediated phosphorylation of ERK (Cisbio HTRF pERK), H358 cells; assay type: cell-based; conditions: Homo sapiens; for IC50: NCI-H358, HTRF pERK; for inhibition at 0.1 µM: NCI-H358, 3 h, single point, 100 nM compound, 3 hrs
Method in brief: (§2)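 Signal read by HTRF (d2/Cryptate antibody pair, 2 hr room-temperature incubation on lysate). Cells: 6,000 per well, 3 hr compound exposure. Titration: 10 uM highest, 3-fold, 10 points.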

[4] = system: KRas-mediated phosphorylation of ERK in HCT116 cells; assay: Inhibition of KRas-mediated phosphorylation of ERK (Cisbio HTRF pERK), HCT116 cells; assay type: cell-based; conditions: Homo sapiens; for IC50: HCT-116, HTRF pERK
Method in brief: (§3)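 Using 6,000 cells per well, compounds are applied for 3 hrs and cells then lysed at 4° C with shaking for 40 mins. Phospho-ERK is measured by HTRF after 2 hrs of lysate incubation with the d2/Cryptate antibody mixture.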

[5] = system: KRas-mediated phosphorylation of ERK in AsPC-1 cells; assay: Inhibition of KRas-mediated phosphorylation of ERK (Cisbio HTRF pERK), AsPC-1 cells; assay type: cell-based; conditions: Homo sapiens, ASPC1, AsPC-1 cells; HTRF pERK
Method in brief: as §2

[6] = system: KRas-mediated phosphorylation of ERK in A549 cells; assay: Inhibition of KRas-mediated phosphorylation of ERK (Cisbio HTRF pERK), A549 cells; assay type: cell-based; conditions: Homo sapiens; for IC50: HTRF pERK; for inhibition at 0.1 µM: A549, 3 h, single point, 100 nM compound, 3 hrs
Method in brief: as §3

[7] = system: KRas-mediated phosphorylation of ERK in H460 cells; assay: Inhibition of KRas-mediated phosphorylation of ERK (Cisbio HTRF pERK), H460 cells; assay type: cell-based; conditions: Homo sapiens; for IC50: NCI-H460, HTRF pERK
Method in brief: as §2

KRas^G13D = target: T6, KRas^G13D (Homo sapiens, UniProt P01116, G13D); assay: KRas binding assay (TR-FRET tracer displacement), KRas G13D; conditions: for inhibition at 0.01 µM: single point, 10 nM compound, TR-FRET
T6 construct: Biotinylated KRas (corresponding to amino acids 1-169, produced at Accelegan Inc.); biotin (biotinylated); purchased Accelegan Inc

KRas^G12D = target: T7, KRas^G12D (Homo sapiens, UniProt P01116, G12D); assay: KRas binding assay (TR-FRET tracer displacement), KRas G12D
T7 construct: Biotinylated KRas (corresponding to amino acids 1-169, produced at Accelegan Inc.); biotin (biotinylated); purchased Accelegan Inc

KRas^G12A = target: T8, KRas^G12A (Homo sapiens, UniProt P01116, G12A); assay: KRas binding assay (TR-FRET tracer displacement), KRas G12A; conditions: for inhibition at 0.01 µM: single point, 10 nM compound, TR-FRET
T8 construct: Biotinylated KRas (corresponding to amino acids 1-169, produced at Accelegan Inc.); biotin (biotinylated); purchased Accelegan Inc

[8] = system: KRas-mediated phosphorylation of ERK in H727 cells; assay: Inhibition of KRas-mediated phosphorylation of ERK (Cisbio HTRF pERK), H727 cells; assay type: cell-based; conditions: Homo sapiens, NCI-H727, H727 cells; HTRF pERK
Method in brief: as §2

KRas^G12V = target: T9, KRas^G12V (Homo sapiens, UniProt P01116, G12V); assay: KRas binding assay (TR-FRET tracer displacement), KRas G12V
T9 construct: Biotinylated KRas (corresponding to amino acids 1-169, produced at Accelegan Inc.); biotin (biotinylated); purchased Accelegan Inc
T9 sequence (P01116 1-169 isoform P01116-2 G12V): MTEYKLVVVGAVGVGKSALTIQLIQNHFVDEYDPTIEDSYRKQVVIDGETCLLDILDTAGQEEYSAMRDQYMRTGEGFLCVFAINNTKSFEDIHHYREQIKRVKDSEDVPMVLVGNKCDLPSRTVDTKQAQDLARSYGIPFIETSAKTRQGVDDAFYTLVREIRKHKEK

T4 sequence (P01116 1-169 isoform P01116-2 Q61H): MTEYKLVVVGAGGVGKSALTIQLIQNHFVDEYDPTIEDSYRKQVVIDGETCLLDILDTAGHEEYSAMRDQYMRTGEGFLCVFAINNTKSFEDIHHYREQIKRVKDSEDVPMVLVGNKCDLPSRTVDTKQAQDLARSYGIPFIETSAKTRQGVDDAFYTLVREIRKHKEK
T7 sequence (P01116 1-169 isoform P01116-2 G12D): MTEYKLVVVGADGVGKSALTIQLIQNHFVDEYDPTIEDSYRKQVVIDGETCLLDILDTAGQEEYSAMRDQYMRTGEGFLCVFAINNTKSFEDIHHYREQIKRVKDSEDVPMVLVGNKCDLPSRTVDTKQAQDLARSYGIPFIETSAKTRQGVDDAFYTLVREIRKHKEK
T8 sequence (P01116 1-169 isoform P01116-2 G12A): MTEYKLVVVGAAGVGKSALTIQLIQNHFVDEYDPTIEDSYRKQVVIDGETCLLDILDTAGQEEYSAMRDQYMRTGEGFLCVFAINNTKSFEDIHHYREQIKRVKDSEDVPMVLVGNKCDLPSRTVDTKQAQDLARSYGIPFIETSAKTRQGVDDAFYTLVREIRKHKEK
T1 sequence (P01116 1-169 isoform P01116-2): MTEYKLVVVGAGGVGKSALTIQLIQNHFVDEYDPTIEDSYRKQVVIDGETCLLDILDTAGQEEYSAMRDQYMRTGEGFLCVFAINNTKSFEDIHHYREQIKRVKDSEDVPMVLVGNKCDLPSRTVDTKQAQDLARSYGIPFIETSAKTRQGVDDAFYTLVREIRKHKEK
T2 sequence (P01116 1-169 isoform P01116-2 G12S): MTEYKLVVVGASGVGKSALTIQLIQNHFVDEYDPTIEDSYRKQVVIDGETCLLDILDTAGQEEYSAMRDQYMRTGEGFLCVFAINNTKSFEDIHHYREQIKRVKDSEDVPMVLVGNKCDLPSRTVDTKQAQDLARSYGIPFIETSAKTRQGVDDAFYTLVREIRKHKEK
T3 sequence (P01116 1-169 isoform P01116-2 G12C): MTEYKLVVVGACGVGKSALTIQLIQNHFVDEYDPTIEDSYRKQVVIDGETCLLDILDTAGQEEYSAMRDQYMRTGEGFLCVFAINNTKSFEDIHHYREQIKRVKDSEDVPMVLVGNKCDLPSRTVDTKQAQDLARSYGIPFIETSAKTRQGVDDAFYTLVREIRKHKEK
T5 sequence (P01116 1-169 isoform P01116-2 G12R): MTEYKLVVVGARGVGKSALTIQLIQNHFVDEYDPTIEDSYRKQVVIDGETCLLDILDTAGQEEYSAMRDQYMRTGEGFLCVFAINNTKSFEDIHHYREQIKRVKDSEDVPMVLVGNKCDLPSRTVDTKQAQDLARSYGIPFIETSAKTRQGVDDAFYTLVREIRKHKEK
T6 sequence (P01116 1-169 isoform P01116-2 G13D): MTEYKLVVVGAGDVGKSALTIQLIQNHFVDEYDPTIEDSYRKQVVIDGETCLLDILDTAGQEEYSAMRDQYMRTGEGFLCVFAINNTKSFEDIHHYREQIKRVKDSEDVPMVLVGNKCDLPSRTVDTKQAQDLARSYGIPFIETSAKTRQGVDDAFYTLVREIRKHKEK

| Structure (SMILES) | IC50 [1] | IC50 [2] | IC50 (KRas^G12R) | IC50 [3] | IC50 [4] | IC50 [5] | IC50 [6] | IC50 [7] | IC50 (KRas^G12D) | IC50 [8] | IC50 (KRas^G12V) | inhibition at 0.01 µM (KRas^WT) | inhibition at 0.01 µM (KRas^G12S) | inhibition at 0.01 µM (KRas^G12C) | inhibition at 0.01 µM (KRas^Q61H) | inhibition at 0.1 µM [3] | inhibition at 0.1 µM [6] | inhibition at 0.01 µM (KRas^G13D) | inhibition at 0.01 µM (KRas^G12A) | further results |
| --- | --- | --- | --- | --- | --- | --- | --- | --- | --- | --- | --- | --- | --- | --- | --- | --- | --- | --- | --- | --- |
| CN(C)C(=O)c1cc2n(n1)CCCN(c1nc(OC[C@@]34CCCN3C[C@H](F)C4)nc3c(F)c(-c4c(C5CC5)c(Cl)cc5[nH]ncc45)ncc13)C2 [Example 882, 5-(7-(6-chloro-5-cyclopropyl-1H-indazol-4-yl)-8-fluoro-2-(((2R,7aS)-2-fluorotetrahydro-1H-pyrrolizin-7a(5H)-yl)methoxy)pyrido[4,3-d]pyrimidin-4-yl)-N,N-dimethyl-5,6,7,8-tetrahydro-4H-pyrazolo[1,5-a][1,4]diazepine-2-carboxamide] | > 10000 nM | 521 nM | 8 nM | 429 nM | 7110 nM | 677 nM | > 10000 nM | 4460 nM | 2 nM | 1300 nM | 3 nM | – | – | – | – | – | – | – | – | IC50 (KRas^WT; TR-FRET tracer displacement, KRas WT): 13 nM; IC50 (KRas^G12S; TR-FRET tracer displacement, KRas G12S): 5 nM; IC50 (KRas^G12C; TR-FRET tracer displacement, KRas G12C): 5 nM; IC50 (KRas^Q61H; TR-FRET tracer displacement, KRas Q61H): 15 nM; IC50 (KRas^G13D; TR-FRET tracer displacement, KRas G13D): 15 nM; IC50 (KRas^G12A; TR-FRET tracer displacement, KRas G12A): 9 nM |
| CCc1c(F)ccc2cc(O)cc(-c3ncc4c(N5CCC[C@]6(C5)C[C@@H](O)C6)nc(OC[C@@]56CCCN5[C@H](COC(=O)N(C)C)CC6)nc4c3F)c12 [Example 713, ((3S,7aS)-7a-(((7-(8-ethyl-7-fluoro-3-hydroxynaphthalen-1-yl)-8-fluoro-4-((2S,4s)-2-hydroxy-6-azaspiro[3.5]nonan-6-yl)pyrido[4,3-d]pyrimidin-2-yl)oxy)methyl)hexahydro-1H-pyrrolizin-3-yl)methyl dimethylcarbamate] | 3580 nM | 22 nM | 4 nM | – | – | 73 nM | – | 102 nM | 3 nM | 59 nM | 2 nM | 66% | 76% | 81% | 69% | 60% | 25% | 67% | 74% | – |
| CCc1c(F)ccc2cc(O)cc(-c3ncc4c(N5CCC[C@@]6(CCO6)C5)nc(OCC5(CN(C)C)CC5)nc4c3F)c12 [Example 700, (R)-4-(2-((1-((dimethylamino)methyl)cyclopropyl)methoxy)-8-fluoro-4-(1-oxa-6-azaspiro[3.5]nonan-6-yl)pyrido[4,3-d]pyrimidin-7-yl)-5-ethyl-6-fluoronaphthalen-2-ol] | 1320 nM | 4 nM | – | 209 nM | 784 nM | 412 nM | 468 nM | 348 nM | – | 948 nM | – | 91% | 93% | 97% | 96% | 103% | 83% | 96% | 83% | inhibition at 0.1 µM ([4]; HCT-116, 3 h, single point, 100 nM compound, 3 hrs): 86%; inhibition at 0.1 µM ([7]; NCI-H460, 3 h, single point, 100 nM compound, 3 hrs): 96% |
| CCc1c(F)ccc2cc(O)cc(-c3ncc4c(N5CCCCC(C#N)C5)nc(OC[C@@]56CCCN5C[C@H](F)C6)nc4c3F)c12 (stereo partly drawn) [Example 547, 1-(7-(8-ethyl-7-fluoro-3-hydroxynaphthalen-1-yl)-8-fluoro-2-(((2R,7aS)-2-fluorohexahydro-1H-pyrrolizin-7a-yl)methoxy)pyrido[4,3-d]pyrimidin-4-yl)azepane-3-carbonitrile] | 7520 nM | 16 nM | 10 nM | – | – | 49 nM | – | 51 nM | 4 nM | 263 nM | 7 nM | 68% | 58% | 56% | 70% | 20% | 33% | 76% | 49% | – |

From patent publication US20260015350A1, “AZAQUINAZOLINE PAN-KRAS INHIBITORS” (Mirati Therapeutics, Inc., priority 2022, published 2026)
